Key:
PC-3 spheroids = test: PC-3 spheroid assay; type: cell-based, human
Text: FIG. 18 is a graph illustrating the size of PC-3 spheroids over time.
FIG. 19 is a graph illustrating the size of PC-3 spheroids over time.

NK cells (CD56+CD3−) = test: NK cell proliferation in PBMCs, CellTrace Violet dilution; type: cell-based, human
Experimental: FIGS. 2A-2H illustrates that cam1615B7-H3 TriKE induces potent, and specific, natural killer (NK) cell proliferation. Peripheral blood mononuclear cells (PBMCs) were CellTrace Violet labeled and incubated for seven days at 5 nM equimolar concentrations of rhIL-15 or cam1615B7-H3 TriKE. On day 7, the cells were harvested and stained for flow cytometric evaluation. […] FIG. 2B is a graph illustrating pooled data showing the overall proportion of NK cells that proliferated. FIG. 2C is a graph illustrating pooled data showing the proportion of NK cells that highly proliferated (measured as proliferation beyond three divisions). FIG. 2D is a graph illustrating pooled data showing NK cell counts in the cultures (N=9). FIG. 2E is a representative histogram showing T cell (CD56− CD3+) proliferation. FIG. 2F is a graph illustrating pooled data showing the overall proportion of T cells proliferated. FIG. 2G is a graph illustrating pooled data showing the proportion of T cells highly proliferated. […]
The wild-type IL-15 moiety in the cam1615B7-H3 TriKE was designed to induce targeted delivery of a proliferative signal to NK cells. […] At the end of the seven days, cells were harvested and proliferation was evaluated by gating on CD56+CD3− cells. […] Since IL-15 acts on both NK cells and T cells, specificity was evaluated next by gating on T cells (CD56-CD3+). […]

[1] = test system: MA-148-luc ovarian cancer cells; test: Xenogeneic ovarian cancer MA-148-Luc model; type: in vivo, NSG mice
Text: FIGS. 32A-32F illustrate that cam1615B7-H3 TriKE is efficacious in subduing ovarian tumor progression in vivo. FIG. 32A is a diagram showing xenogeneic ovarian cancer MA-148-Luc model in female NSG mice (N=5 per treatment group). FIG. 32B is a graph showing bioluminescent imaging indicative of tumor progression, measured as Total flux radiance (p/s), over three weeks in the MA148 mouse model treated with enriched NK cells and noted treatments. FIG. 32C is a graph illustrating bioluminescent imaging results on day 21 data point. FIG. 32D is a photograph illustrating total flux radiance (p/s) on day 21. FIG. 32E is a scatter plot of CD56+CD3− NK cell numbers from peritoneal lavages for the rhIL-15 and cam1615B7-H3 TriKE treatment groups at D21. FIG. 32F is a scatter plot of CD16 media fluorescence intensity on NK cells from peritoneal lavages for the rhIL-15 and cam1615B7-H3 TriKE treatment groups at day 21. * p<0.05, ** p<0.01.
MA-148-Luc ovarian cancer cells were incorporated into a previously described NK cell xenogeneic mouse model system. NSG mice (NOD.Cg-Prkdcscid Il2rgtm1Wjl/SzJ, n=5/group) were injected IP with 2.0×10^5 MA-148-luc cells and then three days later conditioned with low-dose total body irradiation (225 cGy). The following day, all groups received highly enriched NK cells (PBMC magnetically CD3 and CD19 depleted), equivalent to 1 million NK cells/mouse, and were started on the drug regimen. A single course of treatment consisted of an IP injection of […] of TriKE or 5 μg rhIL-15 given every day of the week (Monday-Friday) for three weeks. MA-148-luc cells are a subline of MA-148 that have been transfected with a luciferase reporter gene, allowing for imaging of the mice each week to determine their bioluminescent activity and to monitor tumor progression. Briefly, mice were injected with 100 μL of 30 mg/mL luciferin substrate 10 min prior to imaging and then anesthetized via inhalation of isoflurane gas (25). Mice were then imaged using the Xenogen Ivis 100 imaging system and analyzed with Living Image 2.5 software (Xenogen Corporation, Alameda, CA, USA). At the end of the experiment (day 21), all the animals were sacrificed, and postmortem peritoneal lavages were performed to analyze human NK cell content by flow cytometry. Animal imaging and analysis was performed at the University of Minnesota Imaging Center. Mouse studies were carried after approval (protocol 1908-37330A) from the Institutional Animal Care and Use Committee (IACUC) at the University of Minnesota and in compliance with their guidelines.
As illustrated in FIGS. 32A-32F, cam1615B7-H3 TriKE mediates anti-tumor activity in vivo. Determination of in vivo activity is a critical step for translation. However, prior to evaluating the ability of the cam1615B7-H3 TriKE to induce function against tumor the potential for toxicity was assessed. To do this NSG mice were irradiated, engrafted with 1 million NK cells, treated with nothing, IL-15, or cam1615B7-H3 for three weeks, and weights were tracked over the course of 90 days post initial treatment. […] This is not surprising given the low toxicity profile of IL-15 and the safety profile of B7-H3. […] In this model, human NK cells and human high grade serous MA-148-luc cells are injected into the peritoneal cavity of NSG mice.

Substance	PC-3 spheroid size over time (PC-3 spheroids)	killing of PC3 spheroids (PC-3 spheroids; photographs, FIG. 20)	overall NK cell proliferation (NK cells (CD56+CD3−); PBMCs, 7 days, 5 nM equimolar)	NK cell proliferation (3 or more rounds of division) vs IL-15 alone (NK cells (CD56+CD3−); compared to IL-15 alone)	tumor progression (bioluminescence), longitudinal ([1]; IP 30 g of TriKE or 5 μg rhIL-15 Monday-Friday for three weeks, enriched NK cells, vs IL-15 treated or tumor only)	PD-1 expression ([1]; TriKE-treated vs IL-15-treated mice)	CD16 expression on NK cells from peritoneal lavages ([1]; day 21, vs IL-15 treated mice)	tumor burden at day 21 ([1]; day 21, vs tumor only group)	disease outcome of treated animals ([1]; treatment not curative within this model)
B7-H3 TriKE: camelid nanobodies targeting CD16 and B7-H3 joined by IL-15 and two linkers; sequence table equates the name with cam1615B7-H3	reduce PC-3 spheroid size over time	efficient killing of PC3 spheroids	–	–	–	–	–	–	–
cam1615B7-H3: second-generation TriKE: humanized camelid anti-CD16 VHH, human wild-type IL-15, anti-B7-H3 mAb 376.96 scFv; SEQ ID NO:1	–	–	overall increase in proliferation that was similar in amplitude to that induced by rhIL-15	more potent at inducing NK cell proliferation	lowest tumor progression	lower (but not significant) trend of expression	higher levels of CD16 expression than IL-15 treated mice	significantly lower tumor burden than the tumor only group	stable disease
